10 molecules from ChEMBL document CHEMBL3751822, “C1C2-linker substituted 1,5-naphthyridine analogues of oxabicyclooctane-linked NBTIs as broad-spectrum antibacterial agents (part 7)” (Medchemcomm, 2015) can be followed below.

Converted amounts (≈) assume the structure as drawn.

Assay [1] deals with Staphylococcus aureus. Briefly: Antibacterial activity against Staphylococcus aureus infected in iv dosed mouse. The class given is functional.
In assay [2] the test system is Staphylococcus aureus. Briefly: Antibacterial activity against Staphylococcus aureus infected in po dosed mouse. The assay is classed as functional.
Assay [3] concerns Staphylococcus aureus. Briefly: Ratio of MIC for quinolone-resistant Staphylococcus aureus MS5935 to MIC for quinolone-sensitive Staphylococcus aureus MS5935. The class given is functional.
Assay [4] has as its system Staphylococcus aureus. Briefly: Antibacterial activity against quinolone-resistant Staphylococcus aureus MS5935 by micro-broth dilution method. The class given is functional. On the technique in general: Broth dilution looks for growth in wells or tubes with falling amounts of substance.
Assay [5] relates to Staphylococcus aureus. Put plainly: Antibacterial activity against quinolone-sensitive Staphylococcus aureus MS5935 by micro-broth dilution method. The assay is classed as functional.
Assay [6] concerns Staphylococcus aureus. Put plainly: Antibacterial activity against Staphylococcus aureus Smith by micro-broth dilution method. The assay is classed as functional. The note with it: Staphylococcus aureus, Smith; read-out: MIC.
Assay [7] deals with Staphylococcus aureus. Put plainly: Antibacterial activity against methicillin resistant Staphylococcus aureus OIT971 by micro-broth dilution method. The assay is classed as functional. To be noted: Staphylococcus aureus, OIT971; read-out: MIC.
Another assay concerns Streptococcus pneumoniae. Briefly: Antibacterial activity against Streptococcus pneumoniae IID553 by micro-broth dilution method. The class given is functional. To be noted: Streptococcus pneumoniae, IID553; read-out: MIC.
A further assay concerns Enterococcus faecium. Briefly: Antibacterial activity against Enterococcus faecium VanA by micro-broth dilution method. The assay is classed as functional. The note with it: Enterococcus faecium, VanA; read-out: MIC.
Another assay deals with Escherichia coli. Briefly: Antibacterial activity against Escherichia coli ATCC 25922 by micro-broth dilution method. The class given is functional. The note with it: Escherichia coli, ATCC 25922; read-out: MIC.
In another assay the test system is Acinetobacter baumannii. Briefly: Antibacterial activity against Acinetobacter baumannii IID876 by micro-broth dilution method. The class given is functional. To be noted: Acinetobacter baumannii, IID876; read-out: MIC.
A further assay relates to Pseudomonas aeruginosa. Put plainly: Antibacterial activity against Pseudomonas aeruginosa PAO1 by micro-broth dilution method. The assay is classed as functional. The note with it: Pseudomonas aeruginosa, PAO1; read-out: MIC.
For assay [8], the target named is T1, Voltage-gated inwardly rectifying potassium channel KCNH2 (Homo sapiens, UniProt Q12809). Put plainly: Inhibition of human ERG expressed in CHO cells by patch express assay. The assay is classed as cell-based.
T1 sequence (Q12809 whole entry): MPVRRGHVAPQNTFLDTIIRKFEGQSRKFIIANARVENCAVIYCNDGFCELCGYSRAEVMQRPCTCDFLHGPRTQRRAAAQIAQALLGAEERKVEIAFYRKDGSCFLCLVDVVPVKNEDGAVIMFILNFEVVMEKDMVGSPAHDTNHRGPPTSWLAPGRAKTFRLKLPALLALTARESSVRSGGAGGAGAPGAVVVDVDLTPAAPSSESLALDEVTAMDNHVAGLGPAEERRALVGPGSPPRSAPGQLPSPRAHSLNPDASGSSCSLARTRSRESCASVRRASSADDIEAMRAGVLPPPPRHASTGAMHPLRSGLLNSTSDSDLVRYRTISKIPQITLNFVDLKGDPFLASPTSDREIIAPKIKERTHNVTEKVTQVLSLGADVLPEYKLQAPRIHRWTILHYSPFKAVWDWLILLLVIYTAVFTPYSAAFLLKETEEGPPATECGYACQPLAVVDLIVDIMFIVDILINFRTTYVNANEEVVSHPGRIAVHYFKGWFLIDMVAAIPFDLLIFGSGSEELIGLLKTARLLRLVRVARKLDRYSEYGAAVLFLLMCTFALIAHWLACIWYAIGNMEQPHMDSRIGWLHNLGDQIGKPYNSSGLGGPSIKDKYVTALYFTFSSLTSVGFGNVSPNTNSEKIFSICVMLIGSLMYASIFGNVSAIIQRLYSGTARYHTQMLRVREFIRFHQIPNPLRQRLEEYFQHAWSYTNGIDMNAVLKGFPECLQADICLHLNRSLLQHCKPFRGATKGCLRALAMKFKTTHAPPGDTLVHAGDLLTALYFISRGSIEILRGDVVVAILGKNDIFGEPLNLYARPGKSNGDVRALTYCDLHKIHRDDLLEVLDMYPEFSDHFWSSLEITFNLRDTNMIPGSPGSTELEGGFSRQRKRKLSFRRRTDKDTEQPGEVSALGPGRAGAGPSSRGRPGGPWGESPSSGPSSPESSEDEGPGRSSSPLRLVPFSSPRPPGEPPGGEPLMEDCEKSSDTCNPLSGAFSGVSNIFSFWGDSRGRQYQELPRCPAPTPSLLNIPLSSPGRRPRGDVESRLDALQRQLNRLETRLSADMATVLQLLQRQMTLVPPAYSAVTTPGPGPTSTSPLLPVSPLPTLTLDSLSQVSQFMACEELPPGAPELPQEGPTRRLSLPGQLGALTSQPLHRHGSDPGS
Assay [9] concerns the target T1, Voltage-gated inwardly rectifying potassium channel KCNH2. Put plainly: Displacement of MK499 from human ERG.
The mark [10] stands for this setting: Staphylococcus aureus, iv, read-out: ED50.
Setting [11] is: Staphylococcus aureus, po, read-out: ED50.

As for `COc1ccc2ncc(F)c(C(O)CC34CCC(NCc5ccc6c(n5)NC(=O)CO6)(CC3)CO4)c2n1.Cl` (single isomer, unassigned; (-)), the ED50 (usually the dose that gives a 50% effect, or the effect in half of the subjects) in the assay with Staphylococcus aureus [1] stood at 3.7 mg/kg; with Staphylococcus aureus [2] it was 4.8 mg/kg.

As for `COc1ccc2ncc(F)c(CC(N)C34CCC(NCc5ccc6c(n5)NC(=O)CO6)(CC3)CO4)c2n1.Cl` (stereo in doubt), the ED50 in the assay on Staphylococcus aureus [1] amounted to 11 mg/kg; with Staphylococcus aureus [2] it was 21 mg/kg.

For the molecule `COc1ccc2ncc(F)c(C[C@H](O)C34CCC(NCc5ccc6c(n5)NC(=O)CO6)(CC3)CO4)c2n1.Cl`, the median effective dose (ED50) in the assay with Staphylococcus aureus [1] (setting [10]) stood at 2.5 mg/kg; with Staphylococcus aureus [2] (setting [11]), 2.2 mg/kg.

Consider `COc1ccc2ncc(F)c(C(O)CC34CCC(NCc5ccc6c(n5)NC(=O)CO6)(CC3)CO4)c2n1.Cl` (single isomer, unassigned; (+)), for which the values for the median effective dose (ED50) with Staphylococcus aureus [1] (setting [10]) and in the assay with Staphylococcus aureus [2] (setting [11]) were 5.9 mg/kg and 6.4 mg/kg, respectively.

As to `C[C@H]1COc2c(N3CCN(C)CC3)c(F)cc3c(=O)c(C(=O)O)cn1c23.C[C@H]1COc2c(N3CCN(C)CC3)c(F)cc3c(=O)c(C(=O)O)cn1c23.O` [LEVOFLOXACIN], the Ratio in the assay on Staphylococcus aureus [3] is on record as >64. The values for the MIC with Staphylococcus aureus [4] and in the assay on Staphylococcus aureus [5] were > 16 mg/L and 0.26 mg/L, respectively.

As to `COc1ccc2ncc(F)c(CC(=O)C34CCC(NCc5ccc6c(n5)NC(=O)CO6)(CC3)CO4)c2n1.Cl`, the figures for the median effective dose (ED50) in the assay on Staphylococcus aureus [1] (setting [10]) and with Staphylococcus aureus [2] (setting [11]) were 5.1 mg/kg and 6.4 mg/kg, respectively.

Consider `COc1ccc2ncc(F)c(C(=O)CC34CCC(NCc5ccc6c(n5)NC(=O)CO6)(CC3)CO4)c2n1`, for which the MIC (commonly the smallest concentration in the dilution series that meets the test's criterion for growth inhibition) in the assay with Staphylococcus aureus [6] amounted to 0.06 mg/L (≈ 0.118 µM); in the assay on Staphylococcus aureus [7] it was 0.06 mg/L (≈ 0.118 µM); with Streptococcus pneumoniae, 0.25 mg/L (≈ 0.493 µM); with Enterococcus faecium, 2 mg/L (≈ 3.94 µM); with Escherichia coli, 4 mg/L (≈ 7.88 µM); in the assay with Acinetobacter baumannii it was 1 mg/L (≈ 1.97 µM). The minimal inhibitory concentration (MIC) with Pseudomonas aeruginosa turned out to be 32 mg/L (≈ 63.1 µM). Further, the values for the IC50 in assay [8] and in assay [9] were 3.7 µM and 1.2 µM, respectively. The Ratio with Staphylococcus aureus [3] is <4.

For `COc1ccc2ncc(F)c(C/C(=N\O)C34CCC(NCc5ccc6c(n5)NC(=O)CO6)(CC3)CO4)c2n1`, the MIC was 0.5 mg/L (≈ 0.957 µM) in the assay on Staphylococcus aureus [6]; 0.5 mg/L (≈ 0.957 µM) in the assay with Staphylococcus aureus [7]; 2 mg/L (≈ 3.83 µM) in the assay with Streptococcus pneumoniae; 2 mg/L (≈ 3.83 µM) in the assay on Enterococcus faecium; 2 mg/L (≈ 3.83 µM) in the assay on Escherichia coli; 2 mg/L (≈ 3.83 µM) with Acinetobacter baumannii. Further, the MIC with Pseudomonas aeruginosa was 2 mg/L (≈ 3.83 µM). Further, the IC50 (commonly the concentration that inhibits the measured activity by half) in [9] worked out at 1.6 µM. Moreover, the Ratio in the assay on Staphylococcus aureus [3] is recorded as <4.

Take `COc1ccc2ncc(F)c(CC(N)C34CCC(NCc5ccc6c(n5)NC(=O)CO6)(CC3)CO4)c2n1.Cl` (single isomer, unassigned; (+)): the median effective dose (ED50) stood at 25 mg/kg in the assay with Staphylococcus aureus [1] and 50 mg/kg with Staphylococcus aureus [2].

Turning to `COc1ccc2ncc(F)c(CC(C)(O)C34CCC(NCc5ccc6c(n5)NC(=O)CO6)(CC3)CO4)c2n1` (racemic), the minimal inhibitory concentration (MIC) in the assay on Staphylococcus aureus [6] was 0.06 mg/L (≈ 0.115 µM); in the assay on Staphylococcus aureus [7], 0.06 mg/L (≈ 0.115 µM); in the assay with Streptococcus pneumoniae, 0.5 mg/L (≈ 0.955 µM); with Enterococcus faecium it was 4 mg/L (≈ 7.64 µM); in the assay with Escherichia coli, 8 mg/L (≈ 15.3 µM); in the assay on Acinetobacter baumannii, 2 mg/L (≈ 3.82 µM). Moreover, in the assay with Pseudomonas aeruginosa, the MIC turned out to be 32 mg/L (≈ 61.1 µM). Besides, the IC50 in assay [9] stood at 6.1 µM. Further, in the assay on Staphylococcus aureus [3], the Ratio is listed as <4.
